Reference: patent publication US20250059172A1, “INDAZOLE COMPOUND AND PHARMACEUTICAL” (NIPPON SHINYAKU CO., LTD., priority 2021, published 2025)
Where a name gives a salt, the structure may show the parent alone.

How the values were obtained:
human A549 cells = test: Inhibition test of PGE2 production using human A549 cells; type: cell-based; conditions: IL-1β stimulated A549 cells, 24 h, PGE2 by HTRF, read-out: A549 cell inhibition of PGE2 production IC50
Procedure: 100 μL of RPMI medium (Sigma) comprising 10% FBS and human A549 cells was seeded in a 96-well plate to […] cells per well, and incubated overnight. The medium was then removed and washed with phosphate-buffered saline, and added to a DMSO solution of the test compound or RPMI medium comprising 3% FBS with DMSO to a final concentration of 0.1% DMSO. After incubation for 60 minutes, IL-1P (5 ng/well, BioLegend) was added to the solution. After incubation at 37° C. for 24 h, PGE2 in the medium was quantified using the HTRF kit (Cisbio International) and PGF2a was also quantified using the EIA kit (Cayman chemical). Solutions without the test compound were used as positive controls, and solutions without the test compound and IL-1β were used as negative controls. 100% activity was defined as production of PGE2 and PGF2a in the positive control minus those in the negative control. IC50 values were then determined using standard methods.

human mPGES-1 = human mPGES-1 (Homo sapiens (Human), UniProt O14684); test: mPGES-1 inhibitory activity test; type: biochemical; conditions: for inhibition at 0.01 µM: 10 nM test compound; for inhibition at 0.1 µM: 100 nM test compound; for IC50: microsomes of CHO-K1 cells expressing human mPGES-1, PGH2 1 μM, PGE2 by HTRF, read-out: mPGES-1 inhibition (IC50 nM)
Procedure: mPGES-1 microsomal specimens were prepared by transiently transfecting CHO-K1 cells (DS Pharma Biomedical Co. Ltd) with a plasmid encoding human mPGES-1 cDNA using FuGENE 6 Transfection Reagent (Promega). The prepared mPGES-1 microsome specimens were diluted in potassium phosphate buffer of pH 7.4 comprising 2.5 mM reduced glutathione (Sigma-Aldrich), DMSO solution of a test compound or DMSO was added to a final concentration of 1% of DMSO, and then incubated at 4° C. for 20 minutes. The enzymatic reaction was then initiated by adding a solution of PGH2 (Cayman chemical) substrate of a final concentration 1 μM and incubated at 4° C. for 60 seconds. The reaction was terminated by adding a solution of ferric chloride (STREM CHEMICALS) and citric acid (Wako Pure Chemical Industries) salt to a final concentration of 5 mg/mL and 250 mM, respectively. The formed PGE2 was quantified using the HTRF kit (Cisbio International). Solutions without the test compound were used as positive controls, and solutions without the test compound and microsomal specimens were used as negative controls. 100% activity was defined as production of PGE2 in the positive control minus that in the negative control. The percentage inhibition of production of PGE2 at final concentrations of 10 nM and 100 nM of the test compound was then calculated, or IC50 values were determined using standard methods.

Chain of human mPGES-1 (O14684 whole entry): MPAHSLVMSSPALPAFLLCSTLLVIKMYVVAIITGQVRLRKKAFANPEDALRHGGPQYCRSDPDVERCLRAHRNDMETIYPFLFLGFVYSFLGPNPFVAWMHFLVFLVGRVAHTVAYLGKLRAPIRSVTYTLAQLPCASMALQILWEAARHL

Row | SMILES | IC50 (human A549 cells) [nM] | inhibition at 0.01 µM (human mPGES-1) [%] | inhibition at 0.1 µM (human mPGES-1) [%] | IC50 (human mPGES-1) [nM]
1 | COc1ccc(-n2ncc3c(NC(=O)c4cc(CNC(=O)C5CCCC5)ccc4Cl)cccc32)cn1 [Example 270, 2-Chloro-5-{[(cyclopentylcarbonyl)amino]methyl}-N-[1-(6-methoxypyridin-3-yl)-1H-indazol-4-yl]benzamide] | 3.5 | 64 | 88 | –
2 | COCC(=O)NCc1ccc(Cl)c(C(=O)Nc2cccc3c2cnn3-c2ccc(C(F)(F)F)cc2)c1 [Example 21, 2-Chloro-5-{[(methoxyacetyl)amino]methyl}-N-{1-[4-(trifluoromethyl)phenyl]-1H-indazol-4-yl}benzamide] | 68 | – | – | 3.8
3 | COCC(=O)NCc1ccc(Cl)c(C(=O)Nc2cccc3c2cnn3-c2ccc(Cl)cc2)c1 [Example 148, 2-Chloro-N-[1-(4-chlorophenyl)-1H-indazol-4-yl]-5-([(methoxyacetyl)amino]methyl)benzamide] | 4.2 | 70 | 100 | –
4 | O=C(Nc1cccc2c1cnn2-c1cccc(C(F)(F)F)c1)c1c(F)ccc(CNC(=O)C2CC2)c1F [Example 16, 3-{[(Cyclopropylcarbonyl)amino]methyl}-2,6-difluoro-N-{1-[3-(trifluoromethyl)phenyl]-1H-indazol-4-yl}benzamide] | 9.7 | – | – | 6.3
5 | COCC(=O)NCc1ccc(Cl)c(C(=O)Nc2cccc3c2cnn3-c2ccc(F)cc2)c1 [Example 155, 2-Chloro-N-[1-(4-fluorophenyl)-1H-indazol-4-yl]-5-([(methoxyacetyl)amino]methyl)benzamide] | 5.9 | 100 | – | –
6 | Cc1ccc(-n2ncc3c(NC(=O)c4cc(CNC(=O)C5(O)CC5)ccc4Cl)cccc32)cc1C(F)(F)F [Example 257, 2-Chloro-5-({[(1-hydroxycyclopropyl)carbonyl]amino}methyl)-N-{1-[4-methyl-3-(trifluoromethyl)phenyl]-1H-indazol-4-yl}benzamide] | 4.3 | 94 | 96 | –
7 | Cn1ncc2c(NC(=O)c3cc(CNC(=O)C4CC4)ccc3Cl)cccc21 [Example 112, 2-Chloro-5-{[(cyclopropylcarbonyl)amino]methyl}-N-(1-methyl-1H-indazol-4-yl)benzamide] | 91.1 | – | – | 12.9
8 | O=C(Nc1cccc2c1cnn2Cc1ccccc1)c1cc(CNC(=O)C2CC2)ccc1Cl [Example 109, N-(1-benzyl-1H-indazol-4-yl)-2-chloro-5-{[(cyclopropylcarbonyl)amino]methyl}benzamide] | 119 | – | – | 2.04
9 | O=C(Nc1cccc2c1cnn2-c1ccncc1)c1cc(CNC(=O)C2CC2)ccc1Cl [Example 5, 2-Chloro-5-{[(cyclopropylcarbonyl)amino]methyl}-N-[1-(pyridin-4-yl)-1H-indazol-4-yl]benzamide hydrochloride] | 688 | – | – | 9.6
10 | COc1ccc(-n2ncc3c(NC(=O)c4cc(CNC(=O)C5CCCC5)ccc4Cl)cccc32)cc1C(F)(F)F [Example 262, 2-Chloro-5-{[(cyclopentylcarbonyl)amino]methyl}-N-{1-[4-methoxy-3-(trifluoromethyl)phenyl]-1H-indazol-4-yl}benzamide] | 2 | 99 | 94 | –
11 | CC(C)(C)CC(=O)NCc1ccc(Cl)c(C(=O)Nc2cccc3c2cnn3-c2ccc(C(F)(F)F)nc2)c1 [Example 173, 2-Chloro-5-{[(3,3-dimethylbutanoyl)amino]methyl}-N-{1-[6-(trifluoromethyl)pyridin-3-yl]-1H-indazol-4-yl}benzamide] | 6.7 | 54 | 86 | –

More lines, now with the values ahead:

Row | IC50 (human A549 cells) [nM] | inhibition at 0.01 µM (human mPGES-1) [%] | inhibition at 0.1 µM (human mPGES-1) [%] | IC50 (human mPGES-1) [nM] | SMILES
12 | 1.4 | 95 | 100 | – | COc1ccc(-n2ncc3c(NC(=O)c4cc(CNC(=O)CC(C)(C)C)ccc4Cl)cccc32)cc1C(F)(F)F [Example 261, 2-Chloro-5-{[(3,3-dimethylbutanoyl)amino]methyl}-N-{1-[4-methoxy-3-(trifluoromethyl)phenyl]-1H-indazol-4-yl}benzamide]
13 | 6 | – | – | 8.6 | CC(C)(C)C(=O)NCc1ccc(Cl)c(C(=O)Nc2cccc3c2cnn3-c2ccc(C(C)(C)F)nc2)c1 [Example 85, 2-Chloro-5-{[(2,2-dimethylpropanoyl)amino]methyl}-N-{1-[6-(2-fluoropropan-2-yl)pyridin-3-yl]-1H-indazol-4-yl}benzamide]
14 | 17.4 | 92 | 100 | – | CC(C)(CO)C(=O)NCc1ccc(Cl)c(C(=O)Nc2cccc3c2cnn3-c2cccc(OC(F)F)c2)c1 [Example 143, 2-Chloro-N-{1-[3-(difluoromethoxy)phenyl]-1H-indazol-4-yl}-5-{[(3-hydroxy-2,2-dimethylpropanoyl)amino]methyl}benzamide]
15 | 5.1 | – | – | 3.7 | COc1ccc(-n2ncc3c(NC(=O)c4cc(CNC(=O)C(C)(C)C)ccc4Cl)cccc32)cc1OC [Example 67, 2-Chloro-N-[1-(3,4-dimethoxyphenyl)-1H-indazol-4-yl]-5-{[(2,2-dimethylpropanoyl)amino]methyl}benzamide]
16 | 8.1 | – | – | 4.7 | CC(C)(C)C(=O)NCc1ccc(Cl)c(C(=O)Nc2cccc3c2cnn3CCCc2ccccc2)c1 [Example 101, 2-Chloro-5-{[(2,2-dimethylpropanoyl)amino]methyl}-N-[1-(3-phenylpropyl)-1H-indazol-4-yl]benzamide]
17 | 1.8 | – | – | 1.3 | CC(C)(C)C(=O)NCc1ccc(Cl)c(C(=O)Nc2cccc3c2cnn3-c2ccc(C#N)cc2)c1 [Example 55, 2-Chloro-N-[1-(4-cyanophenyl)-1H-indazol-4-yl]-5-([(2,2-dimethylpropanoyl)amino]methyl)benzamide]
18 | 5.1 | – | – | < 1 | Cc1cc(C)c(Cn2ncc3c(NC(=O)c4cc(CNC(=O)C(C)(C)C)ccc4Cl)cccc32)c(C)c1 [Example 91, 2-Chloro-5-{[(2,2-dimethylpropanoyl)amino]methyl}-N-[1-(2,4,6-trimethylbenzyl)-1H-indazol-4-yl]benzamide]
19 | 20.2 | 59 | 79 | – | CC(C)n1ncc2c(NC(=O)c3cc(CNC(=O)C(C)(C)C)ccc3C(F)(F)F)cccc21 [Example 202, 5-{[(2,2-Dimethylpropanoyl)amino]methyl}-N-[1-(propan-2-yl)-1H-indazol-4-yl]-2-(trifluoromethyl)benzamide]
20 | 20.9 | – | – | 3.6 | Cc1ncc(-n2ncc3c(NC(=O)c4cc(CNC(=O)C(C)(C)C)ccc4Cl)cccc32)cn1 [Example 52, 2-Chloro-5-{[(2,2-dimethylpropanoyl)amino]methyl}-N-[1-(2-methylpyrimidin-5-yl)-1H-indazol-4-yl]benzamide]
21 | 17.7 | – | – | 2.2 | COc1ccccc1Cn1ncc2c(NC(=O)c3cc(CNC(=O)C(C)(C)C)ccc3Cl)cccc21 [Example 90, 2-Chloro-5-{[(2,2-dimethylpropanoyl)amino]methyl}-N-[1-(2-methoxybenzyl)-1H-indazol-4-yl]benzamide]
22 | 1.9 | – | – | 1 | CC(C)(C)C(=O)NCc1ccc(Cl)c(C(=O)Nc2cccc3c2cnn3CC2CCCCC2)c1 [Example 100, 2-Chloro-N-[1-(cyclohexylmethyl)-1H-indazol-4-yl]-5-{[(2,2-dimethylpropanoyl)amino]methyl}benzamide]
23 | 303 | 59 | – | – | COCC(=O)NCc1ccc(Cl)c(C(=O)Nc2cccc3c2cnn3C)c1 [Example 207, 2-Chloro-5-{[(methoxyacetyl)amino]methyl}-N-(1-methyl-1H-indazol-4-yl)benzamide]
24 | 0.7 | 100 | 99 | – | Cc1ccc(-n2ncc3c(NC(=O)c4cc(CNC(=O)CC(C)(C)C)ccc4Cl)cccc32)cc1C(F)(F)F [Example 254, 2-Chloro-5-{[(3,3-dimethylbutanoyl)amino]methyl}-N-{1-[4-methyl-3-(trifluoromethyl)phenyl]-1H-indazol-4-yl}benzamide]
25 | 3.4 | – | – | 1 | Cc1cc(OC(F)(F)F)ccc1-n1ncc2c(NC(=O)c3cc(CNC(=O)C(C)(C)C)ccc3Cl)cccc21 [Example 79, 2-Chloro-5-{[(2,2-dimethylpropanoyl)amino]methyl}-N-{1-[2-methyl-4-(trifluoromethoxy)phenyl]-1H-indazol-4-yl}benzamide]
